In patent US20060159617A1, “Small technetium-99m and rhenium labeled agents and methods for imaging tissues, organs and tumors” (priority 2002, published 2006) one finds Ki data, which are given here for 2 compounds.

In one experiment the target is T1, σ1 receptor (Cavia porcellus, UniProt Q60492).
T1 construct: The membranes were prepared from guinea pig brain (minus cerebellum) as described above; from tissue; host or cells: guinea pig brain (minus cerebellum) membranes
The experiment is described as follows: Sigma-1 receptor competition binding assay with [3H]-(+)-pentazocine. On the set-up: species or system guinea pig. As to conditions: apparent Ki (Cheng-Prusoff), brain membranes. As to the method:
The in vitro σ1 receptor binding affinities of rhenium coordinated complexes were determined in a competition assay using […] and high-affinity σ1 ligand [3H]-(+)-pentazocine (28 Ci/mmol, NEN Life Science Inc., Cambridge, Mass.). See, Mol. Neuropharmacol. 1993, 3, 117-126.
The membranes were prepared from guinea pig brain (minus cerebellum) as described above and stored at −70 ° C. Twelve concentrations of the nonradioactive rhenium complexes ranging from 1×10^−11 to 1×10^−3 and protein samples (0.15 mg of membrane protein) were incubated with […] [3H]-(+)-pentazocine in a total volume of 0.25 mL of Tris-HCl (50 mM, pH 8.0). Incubations were carried out for 120 min at 25° C. All assays were terminated by dilution with 5 mL of ice-cold Tris-HCl (10 mM), pH 8.0, and solution were filtered through glass-fiber filters (Whatman GF/F; presoaked in 0.5% polyethyleneimine for 30 min at 25° C.). Filters were then washed three times with 5 mL of ice-cold Tris-HCl (50 mM, pH 8.0), and counted in Hionic-Fluor cocktail (Packard, Groningen, the Netherlands). The corresponding IC50 values were determined with Origin 6.0 software (OriginLab, Northampton, Mass.) and were used for the calculation of the apparent Ki values with the Cheng-Prusoff equation. See, Biochem. Pharmacol. 1973, 22, 3099-3108.

The next experiment has as its target T2, σ2 receptor (Rattus norvegicus, UniProt Q5U3Y7).
T2 construct: Rat liver membranes were prepared from male Sprague-Dawley rat livers as previously described; from tissue; host or cells: male Sprague-Dawley rat liver membranes
T2 sequence (Q5U3Y7 1-176): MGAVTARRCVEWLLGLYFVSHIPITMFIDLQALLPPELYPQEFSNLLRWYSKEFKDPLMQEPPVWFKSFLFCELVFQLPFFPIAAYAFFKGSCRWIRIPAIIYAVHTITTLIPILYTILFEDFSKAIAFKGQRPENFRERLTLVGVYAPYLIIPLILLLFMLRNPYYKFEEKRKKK
The experiment is described as follows: σ2 receptor competition binding assay with [3H]-DTG, σ1 masked. As to conditions: apparent Ki, rat liver membranes. As to the method:
Rat liver membranes were prepared from male Sprague-Dawley rat livers as previously described (Eur. J. Pharmacol.—Mol. Pharmacol. Sect. 1994, 268, 9-18). The in vitro σ2 receptor binding affinities of rhenium coordinated complexes were determined in a competition assay using rat livers and [^3H]-DTG (31 Ci/mmol, NEN Life Science Inc., Cambridge, Mass.) as radioligand in the presence of 10 μM 1-pyrrolidinylethyl 3,4-dichlorophenylacetate oxalate (ACT915 oxalate) to mask σ1 receptors (Bioorg. & Med. Chem. Lett. 2000, 10, 17-18). Competition assays were performed with twelve concentrations of the nonradioactive rhenium complexes ranging from 1×10^−10 to 1×10^−3 and protein samples (0.15 mg of membrane protein) in a total volume of 0.25 mL of Tris-HCl (50 mM, pH 8.0) for 120 min at 25° C. All other manipulations and data analysis were performed as described vide supra for the σ1-receptor assays.

Another experiment addresses α1 receptor. The experiment is described as follows: Alpha-1 receptor competition binding assay with [3H]-Prazosin. As to conditions: apparent Ki, rat frontal cortex. Here is the method:
The in vitro α1 receptor binding affinities of rhenium coordinated complexes were determined in a competition assay using rat frontal cortex and high-affinity α1 ligand [^3H]-Prazosin (80 Ci/mmol, NEN Life Science Inc., Cambridge, Mass.). See, Eur. J. Nucl. Med. 2002, 29, 82-87.
The frontal cortex of rat brain was prepared as described above and store at −70° C. until used in the binding assays. Ten concentrations of the nonradioactive rhenium complexes ranging from 1×10^−10 to 1×10^−3 and protein samples (0.15 mg of membrane protein) were incubated with 1.5 nM [^3H]-Prazosin in a total volume of 0.25 mL of Tris-HCl (50 mM, pH 7.4, 10 mM MgSO4). Incubations were carried out for 60 min at 25° C. All assays were terminated by dilution with 5 mL of ice-cold Tris-HCl (10 mM), pH 7.4, and solution were filtered through glass-fiber filters (Whatman GF/F; presoaked in 0.5% polyethyleneimine for 30 min at 25° C.). Filters were then washed three times with 5 mL of ice-cold Tris-HCl (50 mM, pH 7.4), and counted in Hionic-Fluor cocktail (Packard, Groningen, the Netherlands). The corresponding IC50 values were determined with Origin 6.0 software (OriginLab, Northampton, Mass.) and were used for the calculation of the apparent Ki values with the Cheng-Prusoff equation. See, Biocheni. Pharmacol. 1973, 22, 3099-3108.

T1 sequence (Q60492 whole entry): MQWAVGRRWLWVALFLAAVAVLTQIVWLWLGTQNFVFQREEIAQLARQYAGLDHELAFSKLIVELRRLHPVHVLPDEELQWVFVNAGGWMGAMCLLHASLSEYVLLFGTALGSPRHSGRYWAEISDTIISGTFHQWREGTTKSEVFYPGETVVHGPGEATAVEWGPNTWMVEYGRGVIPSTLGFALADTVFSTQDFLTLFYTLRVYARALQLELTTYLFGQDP

For `COc1ccccc1C1CCN(CCCN2CC[S][Re]3(=[O])[S]CC[N]3C(=O)C2)CC1` (stereo not drawn) [Re-16], the Ki on σ1 receptor came out at 4830 nM; on σ2 receptor, 336 ± 70 nM; on α1 receptor it was 48 ± 9 nM.
Taken in the same sequence, the figures for `O=C1CN(CCCN2CCC(Cc3ccccc3)CC2)CC[S][Re]2(=[O])[S]CC[N]12` (stereo not drawn) [Re-15] were 547 nM, 136 ± 22 nM and 322 ± 61 nM.
